What was measured:
[1] = tested on: human MDA-MB-468 TNBC or MDA-MB-231 TNBC xenografts; experiment: Anti-tumor activity of pre-targeted PEG engager in xenografts; type: in vivo, SCID mice; conditions: i.v. once a week for 4 weeks; engager 5 h before drug; free doxorubicin 3 mg/kg, Doxisome 1 mg/kg
Protocol: Anti-tumor activity of PEG engager was tested in mice bearing human MDA-MB-468 TNBC or MDA-MB-231 TNBC xenografts following the procedure below.
Groups of severe combined immunodeficiency (SCID) mice bearing 44.7±10.7 mm^3 MDA-MB-231 (n=6) or 84.3±4.3 mm^3 subcutaneous MDA-MB-468 (n=8) tumors on their right flanks were intravenously injected with PBS or with 6 or 18 mg/kg PEG engagers. After 5 h, the mice were intravenously administrated with free doxorubicin (3 mg/kg) or Doxisome (1 mg/kg or 3 mg/kg). This treatment was repeated once a week for a total of 4 weeks. Tumour sizes were measured every 7 days.

[2] = SCID mice; cited from earlier work

SMILES: COc1cccc2c1C(=O)c1c(O)c3c(c(O)c1C2=O)C[C@@](O)(C(=O)CO)C[C@@H]3O[C@H]1C[C@H](N)[C@H](O)[C@H](C)O1 [doxorubicin]
- tumor growth [1]: suppressed tumor growth
- maximum-tolerated dose [2]: 2.5 to 3 mg/kg
